Test results: article PMC8352664 (The Journal of Biological Chemistry, 2021)

Test system: CD8^+ T cells in PBMCs from convalescent COVID-19 patients
Format: cell-based, human

For YLQPSTFLL [S^269–277R273S], the “HLA-A2^S269–277+CD8+ T cell cross-reactivity between WT S^269–277 and variant peptide” value was “no HLA-A2^S269–277+CD8^+ T cell cross-reactivity”.
